Literature values as cited in patent US20130303466A1, “Chemosensory Receptor Ligand-Based Therapies” (ELCELYX THERAPEUTICS, INC., priority 2010, published 2013).

Molecular target: T1, sweet receptor (Homo sapiens, UniProt Q7RTX0+Q8TE23)
T1 sequence (Q8TE23 20-839): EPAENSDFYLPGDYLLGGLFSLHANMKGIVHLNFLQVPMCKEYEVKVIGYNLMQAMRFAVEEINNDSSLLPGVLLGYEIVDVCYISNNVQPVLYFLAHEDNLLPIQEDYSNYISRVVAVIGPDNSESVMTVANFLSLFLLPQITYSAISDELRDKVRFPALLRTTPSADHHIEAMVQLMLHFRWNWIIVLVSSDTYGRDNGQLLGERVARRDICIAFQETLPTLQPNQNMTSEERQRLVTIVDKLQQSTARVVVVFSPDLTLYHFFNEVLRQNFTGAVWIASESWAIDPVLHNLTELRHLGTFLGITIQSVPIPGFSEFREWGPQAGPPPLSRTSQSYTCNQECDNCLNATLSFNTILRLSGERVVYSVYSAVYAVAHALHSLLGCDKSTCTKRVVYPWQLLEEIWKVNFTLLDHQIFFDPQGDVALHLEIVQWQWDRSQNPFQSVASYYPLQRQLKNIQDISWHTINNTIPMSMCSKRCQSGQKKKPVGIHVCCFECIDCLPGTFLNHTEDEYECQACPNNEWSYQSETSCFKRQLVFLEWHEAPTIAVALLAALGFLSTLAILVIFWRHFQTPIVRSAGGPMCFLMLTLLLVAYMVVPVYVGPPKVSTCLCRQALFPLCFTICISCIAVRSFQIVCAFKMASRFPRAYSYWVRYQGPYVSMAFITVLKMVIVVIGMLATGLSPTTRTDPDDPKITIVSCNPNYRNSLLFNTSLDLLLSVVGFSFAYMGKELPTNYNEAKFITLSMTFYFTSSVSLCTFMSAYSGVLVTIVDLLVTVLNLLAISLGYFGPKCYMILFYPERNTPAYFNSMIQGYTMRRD
T1 sequence (Q7RTX0 21-852): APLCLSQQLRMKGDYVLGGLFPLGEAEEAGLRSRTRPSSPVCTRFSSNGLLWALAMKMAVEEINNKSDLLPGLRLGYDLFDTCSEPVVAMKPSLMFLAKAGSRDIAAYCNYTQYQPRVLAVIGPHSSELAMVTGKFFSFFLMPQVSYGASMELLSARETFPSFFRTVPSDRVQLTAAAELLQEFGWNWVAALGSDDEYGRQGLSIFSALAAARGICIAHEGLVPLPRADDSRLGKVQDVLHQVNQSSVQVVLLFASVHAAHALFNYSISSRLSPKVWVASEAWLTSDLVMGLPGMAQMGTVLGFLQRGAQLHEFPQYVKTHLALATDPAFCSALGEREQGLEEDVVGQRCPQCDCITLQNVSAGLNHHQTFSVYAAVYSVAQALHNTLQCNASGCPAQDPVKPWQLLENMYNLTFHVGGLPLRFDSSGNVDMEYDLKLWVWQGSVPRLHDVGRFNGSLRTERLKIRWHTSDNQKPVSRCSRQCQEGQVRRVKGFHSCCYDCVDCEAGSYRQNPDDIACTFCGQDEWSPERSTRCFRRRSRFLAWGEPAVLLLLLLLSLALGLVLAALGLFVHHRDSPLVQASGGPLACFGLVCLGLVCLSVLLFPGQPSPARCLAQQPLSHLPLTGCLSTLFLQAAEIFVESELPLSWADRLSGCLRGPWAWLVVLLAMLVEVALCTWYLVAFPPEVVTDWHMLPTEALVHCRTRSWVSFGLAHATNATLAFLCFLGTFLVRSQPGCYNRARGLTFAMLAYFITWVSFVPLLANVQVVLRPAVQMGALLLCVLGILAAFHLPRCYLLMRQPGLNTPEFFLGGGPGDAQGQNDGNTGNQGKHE
Settings: relative sweetness on a weight comparison basis to sucrose (= 1.0); ranges: relative sweetness varied with the concentration of sucrose; adapted from Kim et al., 2002

Row | Compound | Sweetness/potency
1 | C/C=C/c1ccc(OC)cc1 [trans-Anethole(78), trans-Anethole] | 13
2 | Cyclocaryoside I [Cyclocaryoside I (48)] | 250
3 | COc1c(O)cc2c(c1O)C(=O)[C@H](OC(C)=O)[C@@H](c1ccc(O)cc1)O2 [(2R,3R)-2,3-Dihydro-5,7,4′-trihydroxy-6-methoxy-3-O-acetylflavonol] | 20
4 | C/C(=C\CO)CCC1=C(C=O)CC(OC2OCC(O)C(O)C2O)C2C(C)(CO)CCCC12C (stereo not drawn) [Gaudichaudioside A (32), Gaudichaudioside A] | 55
5 | C=C(C)C1CCC2(C)C(CC(OC3OCC(O)C(O)C3O)C3C(C(C)(O)C/C=C/C(C)(C)O)CCC32C)C1(C)CCC(=O)O (stereo not drawn) [Pterocaryoside B (63), Pterocaryoside B] | 100
6 | COc1ccc([C@H]2Cc3cccc(O)c3C(=O)O2)cc1O [Phyllodulcin (3), Phyllodulcin] | 400
7 | CC1=CC[C@@H]([C@@H](C)[C@H]2CC[C@@]3(C)[C@@H]4CC[C@H]5[C@](C)(C(=O)O)[C@@H](O[C@@H]6O[C@H](CO)[C@@H](O)[C@H](O)[C@H]6O[C@@H]6O[C@H](C(=O)O)[C@@H](O)[C@H](O)[C@H]6O)CC[C@@]56C[C@@]46CC[C@]23C)OC1=O [Abrusoside D (45), Abrusoside D] | 75
8 | CC1(C(=O)O)C=C2C3CCC4C5(CO)CCC(OC6OC(C(=O)O)C(O)C(O)C6OC6OC(C(=O)O)C(O)C(O)C6O)C(C)(C)C5CCC4(C)C3(C)CCC2(C)CC1 (stereo not drawn) [Periandrin III (59), Periandrin III] | 92
9 | CC1=CC[C@@H]([C@@H](C)[C@H]2CC[C@@]3(C)[C@@H]4CC[C@H]5[C@](C)(C(=O)O)[C@@H](O[C@@H]6O[C@H](CO)[C@@H](O)[C@H](O)[C@H]6O)CC[C@@]56C[C@@]46CC[C@]23C)OC1=O [Abrusoside A (42), Abrusoside A] | 30
10 | Polypodoside A [Polypodoside A (65)] | 600
11 | Pentadin | 500
12 | Curculin | 550
13 | C=C1C[C@@]23CC[C@H]4[C@@](C)(CCC[C@@]4(C)C(=O)O)[C@@H]2CC[C@]1(O[C@@H]1O[C@H](CO)[C@@H](O)[C@H](O)[C@H]1O[C@@H]1O[C@H](CO)[C@@H](O)[C@H](O)[C@H]1O)C3 [Steviolbioside (22), Steviolbioside] | 90
14 | Cyclocarioside A [Cyclocarioside A (47)] | 200
15 | C=C(C)C1CC=C(/C=N/O)CC1 (stereo not drawn) [Perillartine (10), Perillartine] | 370
16 | CC(=O)O[C@H]1C(=O)c2c(O)cc(O)cc2O[C@@H]1c1ccc(O)c(O)c1 [(2R,3R)-Dihydroquercetin 3-O-acetate] | 80
17 | CC1(C)[C@@H](O[C@H]2O[C@H](C(=O)O)[C@@H](O)[C@H](O)[C@H]2O[C@@H]2OC[C@H](O)[C@H](O)[C@H]2O)CC[C@]2(C)[C@H]3C(=O)C=C4[C@@H]5C[C@@](C)(C(=O)O)CC[C@]5(C)CC[C@@]4(C)[C@]3(C)CC[C@@H]12 [Araboglycyrrhizin (56), Araboglycyrrhizin] | 150

Row | Compound | Sweetness/potency
18 | Albiziasaponin B [Albiziasaponin B (51)] | 600
19 | Pterocaryoside A [Pterocaryoside A (62)] | 50
20 | CC1(C(=O)O)CCC2(C)CCC3(C)C(=CC(=O)C4C5(C)CCC(OC6OC(C(=O)O)C(O)C(O)C6OC6OCC(O)(CO)C6O)C(C)(C)C5CCC43C)C2C1 (stereo not drawn) [Apioglycyrrhizin (55), Apioglycyrrhizin] | 300
21 | COc1ccc(CCC(=O)c2c(O)cc(O[C@@H]3O[C@H](CO)[C@@H](O)[C@H](O)[C@H]3O[C@@H]3O[C@@H](C)[C@H](O)[C@@H](O)[C@H]3O)cc2O)cc1O [Neohesperidin dihydrochalcone (82), Neohesperidin dihydrochalcone] | 1,000
22 | C[C@@H]1O[C@@H](O[C@H]2O[C@@H]([C@@H](C)C3CC[C@@H]4[C@H]5CC(=O)[C@@H]6C[C@H](O[C@@H]7O[C@H](CO)[C@@H](O)[C@H](O)[C@H]7O[C@@H]7O[C@@H](C)[C@H](O)[C@@H](O)[C@H]7O)CC[C@]6(C)[C@@H]5CC[C@]34C)CC[C@@H]2C)[C@H](O)[C@H](O)[C@H]1O (stereo partly drawn) [Osladin (64), Osladin] | 500
23 | C/C(=C\CC/C(C)=C/CO[C@@H]1O[C@H](CO)[C@@H](O)[C@H](O[C@@H]2O[C@@H](C)[C@H](O)[C@@H](O)[C@H]2O)[C@H]1O[C@@H]1O[C@@H](C)[C@H](O)[C@@H](O)[C@H]1O)CC/C=C(\C)CO[C@@H]1O[C@H](CO)[C@@H](O)[C@H](O[C@@H]2O[C@@H](C)[C@H](O)[C@@H](O)[C@H]2O)[C@H]1O[C@@H]1O[C@@H](C)[C@H](O)[C@@H](O)[C@H]1O [Mukurozioside IIb (13), Mukurozioside IIb] | ca. 1
24 | COc1ccc(C2Oc3cc(O)cc(O)c3C(=O)C2OC(C)=O)cc1O (stereo not drawn) [Dihydroquercetin 3-O-acetate 4′-methyl ether] | 400
25 | CC1(C(=O)O)C=C2C3CCC4C5(C=O)CCC(OC6OC(C(=O)O)C(O)C(O)C6OC6OCC(O)C(O)C6O)C(C)(C)C5CCC4(C)C3(C)CCC2(C)CC1 (stereo not drawn) [Periandrin V (61), Periandrin V] | 220
26 | Oc1ccc([C@H]2Oc3c(c(O)cc4c3[C@H]3c5c(O)cc(O)cc5O[C@@](c5ccc(O)cc5)(O4)[C@@H]3O)[C@H](c3c(O)cc(O)c4c3O[C@H](c3ccc(O)cc3)[C@@H](O)C4)[C@H]2O)cc1 [Selligueain A (96), Selligueain A] | 35
27 | Periandrin II [Periandrin II (58)] | 95
28 | CC(C)=CCC[C@](C)(O)[C@@H]1CCC(C)=CC1=O [(+)-Hernandulcin (11), (+)-Hernandulcin] | 1,500
29 | COc1c(O)cc2c(c1O)C(=O)[C@H](O)[C@@H](c1ccc(O)c(O)c1)O2 [(2R,3R)-2,3-Dihydro-5,7,3′,4′-tetrahydroxy-6-methoxyflavonol] | 15
30 | CC[C@@H](C)C(=O)O[C@@H](C)[C@]1(O)CC[C@]2(O)[C@@H]3CC[C@H]4C[C@@H](O[C@@H]5C[C@H](O)[C@H](O[C@H]6C[C@H](OC)[C@H](O[C@H]7C[C@@H](OC)[C@H](O[C@H]8C[C@@H](OC)[C@H](O[C@@H]9O[C@H](C)[C@@H](O[C@@H]%10O[C@H](CO)[C@@H](O)[C@H](O)[C@H]%10O)[C@H](OC)[C@H]9O)[C@@H](C)O8)[C@@H](C)O7)[C@@H](C)O6)[C@@H](C)O5)CC[C@]4(C)[C@H]3C[C@@H](OC(C)=O)[C@]12C [Telosmoside A15 (74), Telosmoside A15] | 1000
31 | CC1=CC[C@@H]([C@@H](C)[C@H]2CC[C@@]3(C)[C@@H]4CC[C@H]5[C@](C)(C(=O)O)[C@@H](O[C@@H]6O[C@H](CO)[C@@H](O)[C@H](O)[C@H]6O[C@@H]6O[C@H](CO)[C@@H](O)[C@H](O)[C@H]6O)CC[C@@]56C[C@@]46CC[C@]23C)OC1=O [Abrusoside C (44), Abrusoside C] | 50
32 | C[C@@H]1O[C@@H](O[C@H]2[C@H](Oc3cc(O)c(C(=O)CCc4ccc(O)cc4)c(O)c3)O[C@H](CO)[C@@H](O)[C@@H]2O)[C@H](O)[C@H](O)[C@H]1O [Naringin dihydrochalcone (81), Naringin dihydrochalcone] | 300
33 | C/C(=C\CC[C@@H](C)[C@H]1CC[C@@]2(C)[C@@H]3CC=C4[C@@H](CC[C@H](O[C@@H]5O[C@H](CO)[C@@H](O)[C@H](O)[C@H]5O)C4(C)C)[C@]3(C)[C@H](O)C[C@]12C)CO[C@@H]1O[C@H](CO[C@@H]2O[C@H](CO)[C@@H](O)[C@H](O)[C@H]2O)[C@@H](O)[C@H](O)[C@H]1O [Carnosifloside VI (36), Carnosifloside VI] | 77
